Experimental data reported in patent US12280082B2, “Formulation for inhibiting virus replication” (priority 2020, dated 2025).
Like-named read-outs stand apart in the source and are kept apart here.

Key:
VeroE6 cells = assay: In vitro cytotoxicity (Hoechst 33342 / Sytox orange imaging); assay type: cell-based
Procedure: The cytotoxicity assay was done in a 96-well plate format in 3 wells for each sample. 1×10e4 VeroE6 cells were plated per well and incubated at 37° C. overnight for the monolayer formation. Next day, cells were incubated with 1 μl (5.5 mg/ml solution in 200 μl) A. paniculate at the concentration with final DMSO conc. being 0.5%. The control cells were incubated with 0.5% DMSO only. The cells without test substance was the control for water soluble compounds. 24 and 48 hours later, cells were stained with Hoechst 33342 and Sytox orange dye. Images were taken at 10×, 16 images per well, which covers 90% of well area using ImageXpress Microconfocal (Molecular Devices). Hoechst 33342 nucleic acid stain is a popular cell-permeant nuclear counterstain that emits blue fluorescence when bound to dsDNA. It stains all the live and dead cells. Sytox orange dye stains nucleic acids in cells with compromised membranes. This stain is an indicator of cell death. First, the software will count total number of cells in the Hoechst image. In the Sytox image, it will count, among Hoechst positive cells, how many cells are positive for sytox.

SARS-COV2 = assay: microbe, parasite or virus in culture; assay type: cell-based; conditions: Severe acute respiratory syndrome coronavirus 2, Vero C1008, 48 h

CCC(CC)COC(=O)[C@H](C)N[P@](=O)(OC[C@H]1O[C@@](C#N)(c2ccc3c(N)ncnn23)[C@H](O)[C@@H]1O)Oc1ccccc1 [Remdesivir]
percentage of cell viability (VeroE6 cells; 24th hour of treatment): 99.23% | percentage of cell viability (VeroE6 cells; 48th hour of treatment): 94.37% | IC50 (SARS-COV2; read-out: IC50 for E gene): 150 nM | IC50 (SARS-COV2; read-out: IC50 for N gene): 110 nM
